Test results published in ChEMBL document CHEMBL3885881, “DrugMatrix”.

Species on record: Rattus norvegicus
Test: DrugMatrix - Regimen: Daily Repeat
Assay type: toxicity, organism-based, Sprague-Dawley
Design: regimen Daily Repeat, gender Male, age 6-8 weeks
Conditions: in vivo, po, route oral GAVAGE, vehicle .5 % CMC; for ABSOLUTE BASOPHIL / ABSOLUTE EOSINOPHIL / ABSOLUTE LYMPHOCYTE / ABSOLUTE MONOCYTE / ABSOLUTE SEGMENTED NEUTROPHIL / BASOPHIL / EOSINOPHIL / ERYTHROCYTE COUNT / HEMATOCRIT / HEMOGLOBIN / LEUKOCYTE COUNT / LYMPHOCYTE / MEAN CORPUSCULAR HEMOGLOBIN / MEAN CORPUSCULAR HEMOGLOBIN CONCENTRATION / MEAN CORPUSCULAR VOLUME / MONOCYTE / NEUTROPHIL / NUCLEATED RED BLOOD CELLS / PLATELET COUNT: tissue Blood; for ALANINE AMINOTRANSFERASE / ALBUMIN / ALKALINE PHOSPHATASE / ASPARTATE AMINOTRANSFERASE / BLOOD UREA NITROGEN / CARBON DIOXIDE / CHLORIDE / CHOLESTEROL / CREATINE PHOSPHOKINASE / CREATININE / GLUCOSE / LACTATE DEHYDROGENASE / LIPASE / PHOSPHORUS / POTASSIUM / SODIUM / TOTAL BILIRUBIN / TOTAL PROTEIN / URIC ACID: tissue Plasma
[1] = 10 mg/kg, 72 h, dose level Low, time 3 day
[2] = 10 mg/kg, 120 h, dose level Low, time 5 day
[3] = 1500 mg/kg, 72 h, dose level High, time 3 day
[4] = 1500 mg/kg, 120 h, dose level High, time 5 day

CCOC(=O)[C@H](CCc1ccccc1)N[C@@H](C)C(=O)N1CCC[C@H]1C(=O)O
ABSOLUTE BASOPHIL [1]: 0 CELLS/uL
ABSOLUTE EOSINOPHIL [1]: 88 CELLS/uL
ABSOLUTE LYMPHOCYTE [1]: 12760.67 CELLS/uL
ABSOLUTE MONOCYTE [1]: 130 CELLS/uL
ABSOLUTE SEGMENTED NEUTROPHIL [1]: 688 CELLS/uL
BASOPHIL [1]: 0%
EOSINOPHIL [1]: 0.67%
ERYTHROCYTE COUNT [1]: 5.43 x10E6/uL
HEMATOCRIT [1]: 32.83%
HEMOGLOBIN [1]: 13.1 G/DL
LEUKOCYTE COUNT [1]: 13.67 x10E3/uL
LYMPHOCYTE [1]: 93.33%
MEAN CORPUSCULAR HEMOGLOBIN [1]: 24.13 pg
MEAN CORPUSCULAR HEMOGLOBIN CONCENTRATION [1]: 39.87 G/DL
MEAN CORPUSCULAR VOLUME [1]: 60.53 fL
MONOCYTE [1]: 1%
NEUTROPHIL [1]: 5%
NUCLEATED RED BLOOD CELLS [1]: 0.33 /100WBC
PLATELET COUNT [1]: 1331.67 x10E3/uL
ALANINE AMINOTRANSFERASE [1]: 46 u/L
ALBUMIN [1]: 4.5 G/DL
ALKALINE PHOSPHATASE [1]: 398 u/L
ASPARTATE AMINOTRANSFERASE [1]: 79 u/L
BLOOD UREA NITROGEN [1]: 17.67 mg/dL
CARBON DIOXIDE [1]: 28.33 mmol/L
CHLORIDE [1]: 98 MEQ/L
CHOLESTEROL [1]: 60.33 mg/dL
CREATINE PHOSPHOKINASE [1]: 181.67 u/L
CREATININE [1]: 0.17 mg/dL
GLUCOSE [1]: 149.33 mg/dL
LACTATE DEHYDROGENASE [1]: 115.33 u/L
LIPASE [1]: 9.67 u/L
PHOSPHORUS [1]: 11.47 mg/dL
POTASSIUM [1]: 6.99 MEQ/L
SODIUM [1]: 142.87 MEQ/L
TOTAL BILIRUBIN [1]: 0.23 mg/dL
TOTAL PROTEIN [1]: 6.13 G/DL
URIC ACID [1]: 1.37 mg/dL
ABSOLUTE BASOPHIL [2]: 0 CELLS/uL
ABSOLUTE EOSINOPHIL [2]: 28.33 CELLS/uL
ABSOLUTE LYMPHOCYTE [2]: 10805 CELLS/uL
ABSOLUTE MONOCYTE [2]: 28.33 CELLS/uL
ABSOLUTE SEGMENTED NEUTROPHIL [2]: 738.33 CELLS/uL
BASOPHIL [2]: 0%
EOSINOPHIL [2]: 0.33%
ERYTHROCYTE COUNT [2]: 5.56 x10E6/uL
HEMATOCRIT [2]: 34.6%
HEMOGLOBIN [2]: 13.37 G/DL
LEUKOCYTE COUNT [2]: 11.6 x10E3/uL
LYMPHOCYTE [2]: 93%
MEAN CORPUSCULAR HEMOGLOBIN [2]: 24.03 pg
MEAN CORPUSCULAR HEMOGLOBIN CONCENTRATION [2]: 38.63 G/DL
MEAN CORPUSCULAR VOLUME [2]: 62.23 fL
MONOCYTE [2]: 0.33%
NEUTROPHIL [2]: 6.33%
NUCLEATED RED BLOOD CELLS [2]: 0 /100WBC
PLATELET COUNT [2]: 1173.33 x10E3/uL
ALANINE AMINOTRANSFERASE [2]: 49.33 u/L
ALBUMIN [2]: 4.27 G/DL
ALKALINE PHOSPHATASE [2]: 405.67 u/L
ASPARTATE AMINOTRANSFERASE [2]: 79.33 u/L
BLOOD UREA NITROGEN [2]: 17.33 mg/dL
CARBON DIOXIDE [2]: 26.33 mmol/L
CHLORIDE [2]: 102.33 MEQ/L
CHOLESTEROL [2]: 51.67 mg/dL
CREATINE PHOSPHOKINASE [2]: 399 u/L
CREATININE [2]: 0.17 mg/dL
GLUCOSE [2]: 175 mg/dL
LACTATE DEHYDROGENASE [2]: 121.67 u/L
LIPASE [2]: 9 u/L
PHOSPHORUS [2]: 11.1 mg/dL
POTASSIUM [2]: 6.79 MEQ/L
SODIUM [2]: 142.87 MEQ/L
TOTAL BILIRUBIN [2]: 0.23 mg/dL
TOTAL PROTEIN [2]: 6.07 G/DL
URIC ACID [2]: 1.2 mg/dL
ABSOLUTE BASOPHIL [3]: 0 CELLS/uL
ABSOLUTE EOSINOPHIL [3]: 63.67 CELLS/uL
ABSOLUTE LYMPHOCYTE [3]: 17047.67 CELLS/uL
ABSOLUTE MONOCYTE [3]: 127.33 CELLS/uL
ABSOLUTE SEGMENTED NEUTROPHIL [3]: 1494.67 CELLS/uL
BASOPHIL [3]: 0%
EOSINOPHIL [3]: 0.33%
ERYTHROCYTE COUNT [3]: 5.46 x10E6/uL
HEMATOCRIT [3]: 34.33%
HEMOGLOBIN [3]: 13.63 G/DL
LEUKOCYTE COUNT [3]: 18.73 x10E3/uL
LYMPHOCYTE [3]: 91%
MEAN CORPUSCULAR HEMOGLOBIN [3]: 24.93 pg
MEAN CORPUSCULAR HEMOGLOBIN CONCENTRATION [3]: 39.7 G/DL
MEAN CORPUSCULAR VOLUME [3]: 62.93 fL
MONOCYTE [3]: 0.67%
NEUTROPHIL [3]: 8%
NUCLEATED RED BLOOD CELLS [3]: 1 /100WBC
PLATELET COUNT [3]: 1237.33 x10E3/uL
ALANINE AMINOTRANSFERASE [3]: 41.33 u/L
ALBUMIN [3]: 4.27 G/DL
ALKALINE PHOSPHATASE [3]: 390.33 u/L
ASPARTATE AMINOTRANSFERASE [3]: 57.33 u/L
BLOOD UREA NITROGEN [3]: 34.67 mg/dL
CARBON DIOXIDE [3]: 32.33 mmol/L
CHLORIDE [3]: 101.67 MEQ/L
CHOLESTEROL [3]: 58.33 mg/dL
CREATINE PHOSPHOKINASE [3]: 191.33 u/L
CREATININE [3]: 0.28 mg/dL
GLUCOSE [3]: 143 mg/dL
LACTATE DEHYDROGENASE [3]: 90.33 u/L
LIPASE [3]: 9 u/L
PHOSPHORUS [3]: 12.8 mg/dL
POTASSIUM [3]: 8.04 MEQ/L
SODIUM [3]: 142.4 MEQ/L
TOTAL BILIRUBIN [3]: 0.27 mg/dL
TOTAL PROTEIN [3]: 6 G/DL
URIC ACID [3]: 1.53 mg/dL
ABSOLUTE BASOPHIL [4]: 0 CELLS/uL
ABSOLUTE EOSINOPHIL [4]: 0 CELLS/uL
ABSOLUTE LYMPHOCYTE [4]: 15341.33 CELLS/uL
ABSOLUTE MONOCYTE [4]: 266 CELLS/uL
ABSOLUTE SEGMENTED NEUTROPHIL [4]: 992.67 CELLS/uL
BASOPHIL [4]: 0%
EOSINOPHIL [4]: 0%
ERYTHROCYTE COUNT [4]: 6.24 x10E6/uL
HEMATOCRIT [4]: 36.97%
HEMOGLOBIN [4]: 15.13 G/DL
LEUKOCYTE COUNT [4]: 16.6 x10E3/uL
LYMPHOCYTE [4]: 92.33%
MEAN CORPUSCULAR HEMOGLOBIN [4]: 24.23 pg
MEAN CORPUSCULAR HEMOGLOBIN CONCENTRATION [4]: 40.93 G/DL
MEAN CORPUSCULAR VOLUME [4]: 59.27 fL
MONOCYTE [4]: 1.67%
NEUTROPHIL [4]: 6%
NUCLEATED RED BLOOD CELLS [4]: 0.33 /100WBC
PLATELET COUNT [4]: 1399.33 x10E3/uL
ALANINE AMINOTRANSFERASE [4]: 39.33 u/L
ALBUMIN [4]: 4.47 G/DL
ALKALINE PHOSPHATASE [4]: 328.67 u/L
ASPARTATE AMINOTRANSFERASE [4]: 73 u/L
BLOOD UREA NITROGEN [4]: 41 mg/dL
CARBON DIOXIDE [4]: 25.33 mmol/L
CHLORIDE [4]: 101.67 MEQ/L
CHOLESTEROL [4]: 48.67 mg/dL
CREATINE PHOSPHOKINASE [4]: 295.67 u/L
CREATININE [4]: 0.37 mg/dL
GLUCOSE [4]: 149 mg/dL
LACTATE DEHYDROGENASE [4]: 268.33 u/L
LIPASE [4]: 9 u/L
PHOSPHORUS [4]: 10.67 mg/dL
POTASSIUM [4]: 9.54 MEQ/L
SODIUM [4]: 140.13 MEQ/L
TOTAL BILIRUBIN [4]: 0.13 mg/dL
URIC ACID [4]: 1.4 mg/dL
